# Measured values taken from patent publication US20030077571A1, “Experimental model and method for evaluation of therapeutic agents against asthenopia” (priority 2001, published 2003).
# Values joined by “and” are separate entries in the source; they are usually repeats but may differ in a detail not shown here. Identical values can stand only once. Like-named read-outs stand apart in the source and are kept apart here.
# System: ciliary muscle
# Assay: Atropine inhibition of acetylcholine-induced ciliary muscle contraction (Magnus tube)
# Type: cell-based, rabbit
# Details: for inhibition at 1 µM: Oryctolagus cuniculus, atropine 10^-6 mol/L vs control; for Tension of Contraction (g), Tables 2 and 6 / Tension of Contraction (g), Tables 4 and 8 / Tension of Contraction (g), Tables 3 and 7: individual enucleated organs 1-2
# Method: The ciliary muscle obtained in EXAMPLE 1 was suspended in a Magnus tube filled with Krebs-Henseleit solution bubbled through with a mixed gas of 5% carbon dioxide and 95% oxygen. Krebs-Henseleit solution was prepared as follows. A-solution, B-solution, C-solution, water and D-solution were mixed at a ratio of 1:1:1:6:1 in the following order. First A-solution, B-solution and C-solution were mixed in the above ratio followed by the addition of distilled water. After rigorous mixing, D-solution was added. The solution thus prepared was shielded from light and used after heating at 37 degrees C.
# The sample in the Magnus tube was suspended at a loading weight of 0.4 g using a tension transducer (Isometric Transducer, FD Pick-up TB-611 T type, made by Nihon Kohden Corporation, Tokyo, Japan). After equilibration for 30 minutes, acetylcholine (made by SIGMA, St. Louis, Mo.) at a final concentration of 10-4 mol/L was added for the first stimulation. After tension reached a plateau value, the sample was washed with a buffer until the tension returned to the baseline. This procedure was repeated nine times.
# The tension of the sample upon each stimulation was recorded by the data collection software (VISUAL DESIGNER ver. 2.3, made by INTELLIGENT INSTRUMENTATION, Tucson, Ariz.) via the tension transducer, an input box (JD-112S type, made by Nihon Kohden Corporation), an amplifier for pressure strain (AP-621G type, made by Nihon Kohden Corporation) and an A.D. conversion board (PCI-20428W, made by INTELLIGENT INSTRUMENTATION).
# The net tension was calculated by subtracting the baseline tension from the tension observed after stimulation, and this was defined as the contraction rate. The first net tension, i.e., tension at the first stimulation—baseline tension, was set as a contraction rate of 100%.
# In addition, the sample in the Magnus tube was treated with atropine at a final concentration of 10-6 mol/L and subjected to acetylcholine stimulation as described above, in order to confirm whether the tension of the sample was in fact due to stimulation by acetylcholine.
# [1] = atropine 10^-6 mol/L, baseline tension data set
# [2] = atropine 10^-6 mol/L, net tension data set
# [3] = atropine 10^-6 mol/L, tension after acetylcholine stimulation data set
smiles,measurement,setting,value
CN1[C@@H]2CC[C@H]1C[C@@H](OC(=O)C(CO)c1ccccc1)C2 (stereo partly shown) [atropine],inhibition at 1 µM,"baseline tension data set, read-out: Inhibition Value (%), Table 6",84.6%
same,inhibition at 1 µM,"net tension data set, read-out: Inhibition Value (%), Table 8",75.6%
same,inhibition at 1 µM,"tension after acetylcholine stimulation data set, read-out: Inhibition Value (%), Table 7",82%
same,contraction of the ciliary muscle elicited by acetylcholine,atropine 10^-6 mol/L,inhibited
same,"Tension of Contraction, Average ± standard deviation, Table 6",[1],0.0245 ± 0.0024 g
same,"Tension of Contraction (g), Tables 2 and 6",[1],0.0228 g and 0.0262 g
same,"Tension of Contraction (g), Tables 2 and 6","atropine 10^-6 mol/L, baseline tension data set, listed as Artopine",0.0228 g and 0.0262 g
same,"Tension of Contraction, Average ± standard deviation, Table 8",[2],0.0156 ± 0.0076 g
same,"Tension of Contraction (g), Tables 4 and 8",[2],0.0102 g and 0.0210 g
same,"Tension of Contraction (g), Tables 4 and 8","atropine 10^-6 mol/L, net tension data set, listed as Artopine",0.0102 g and 0.0210 g
same,"Tension of Contraction, Average ± standard deviation, Table 7",[3],0.0401 ± 0.0100 g
same,"Tension of Contraction (g), Tables 3 and 7",[3],0.0330 g and 0.0472 g
same,"Tension of Contraction (g), Tables 3 and 7","atropine 10^-6 mol/L, tension after acetylcholine stimulation data set, listed as Artopine",0.0330 g and 0.0472 g
